Assay results taken from ChEMBL document CHEMBL1201862, “PubChem BioAssay data set” (2004).
Values belong to the compound of their own block, whether it stands above or below them. Active and inactive are the calls of the source.

Legend:
[1] = Luminescence Cell-Based Dose Confirmation HTS to Identify Inhibitors of Platelet Dense Granule Release. [Related pubchem assays: 1663 (Primary HTS), 1678 (Summary of Project)]; format: functional
[2] = molecular target: Luciferin 4-monooxygenase (Photinus pyralis, UniProt P08659); experiment: inhibition of purified Photinus pyralis luciferase – biochemical, luminescence, dose response (AID 1891)
HEK293 = experiment: EBV LMP1 TES2 canonical NF-kB signalling blockers – cell-based, HEK293, luciferase, cherry-pick, dose response (AID 588343); format: functional; conditions: Homo sapiens
[3] = molecular target: 72 kDa type IV collagenase (Homo sapiens, UniProt P08253); experiment: Dose Response validation of uHTS RPN11 inhibitor hits using a MMP-2 Fluorescence assay.; format: functional
[4] = molecular target: 26S proteasome non-ATPase regulatory subunit 14 (Homo sapiens, UniProt O00487); experiment: inhibition of proteasome subunit RPN11 – biochemical, fluorescence polarization, uHTS hits, confirmation (AID 602368); format: functional
Prothrombin = Prothrombin (Bos taurus, UniProt P00735); experiment: thrombin protease inhibitors – biochemical, fluorescence polarization, uHTS hits, dose response (AID 602369); format: functional
Cytochrome P450 2C9 = Cytochrome P450 2C9 (Homo sapiens, UniProt P11712)
[5] = HEK-293T viability loss after treatment – luminescence, T-cell screen hits, cytotoxicity control for TCR NF-kB inhibitor project, dose response (AID 489026); format: functional, cell-based;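 note: cells exposed to compound about 14 hours before the viability readout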
[6] = molecular target: T1, Microphthalmia-associated transcription factor (Homo sapiens, UniProt O75030); experiment: reducers of TRPM1 reporter luminescence, concentration series – cell-based, SK-MEL-5, cherry-picked, set 3, MITF inhibitor project, dose response (AID 493073); format: functional;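 note: SK-MEL-5 melanoma cells with luciferase driven by the MITF target TRPM1 promoter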
T1 sequence (O75030 whole entry): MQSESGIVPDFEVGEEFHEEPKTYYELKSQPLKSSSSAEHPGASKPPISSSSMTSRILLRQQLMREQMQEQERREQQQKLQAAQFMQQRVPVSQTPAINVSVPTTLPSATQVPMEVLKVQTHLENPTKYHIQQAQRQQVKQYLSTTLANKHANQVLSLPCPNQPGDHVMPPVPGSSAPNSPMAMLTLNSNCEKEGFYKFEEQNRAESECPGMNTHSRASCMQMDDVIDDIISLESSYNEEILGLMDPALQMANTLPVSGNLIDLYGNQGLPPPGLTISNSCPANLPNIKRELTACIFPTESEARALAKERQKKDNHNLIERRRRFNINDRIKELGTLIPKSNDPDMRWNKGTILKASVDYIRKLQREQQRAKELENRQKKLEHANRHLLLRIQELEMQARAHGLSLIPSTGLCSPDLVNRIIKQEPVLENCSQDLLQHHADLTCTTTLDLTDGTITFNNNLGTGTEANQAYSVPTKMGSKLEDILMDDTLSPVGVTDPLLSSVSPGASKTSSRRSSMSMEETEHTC

Paired box protein Pax-8 = Paired box protein Pax-8 (Homo sapiens, UniProt Q06710); experiment: PAX8 transcriptional activity inhibition in RMG-I – RMG-I cells, luciferase, cherry-pick, dose response (AID 687027); format: functional, cell-based;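 note: luciferase reporter driven by Pax8 target thyroperoxidase promoter measured by SteadyGlo luminescence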
[7] = molecular target: T2, Low molecular weight phosphotyrosine protein phosphatase (Homo sapiens, UniProt P24666); format: functional; conditions: read-out: IC50_Mean;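 note: Dose-response confirmation assay measuring inhibition of LMPTP enzyme activity by fluorescence intensity read-out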
T2 sequence (P24666 whole entry): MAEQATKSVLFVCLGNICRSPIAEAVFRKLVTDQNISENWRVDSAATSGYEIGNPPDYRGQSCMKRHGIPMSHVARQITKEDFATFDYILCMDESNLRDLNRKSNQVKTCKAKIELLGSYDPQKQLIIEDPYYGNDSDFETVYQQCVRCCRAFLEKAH

Fatty acid synthase [8] = molecular target: T3, Fatty acid synthase (Homo sapiens, UniProt P49327); experiment: inhibition of human FAS-TE enzyme activity – biochemical, endpoint fluorescence intensity, uHTS hits, dose response (AID 624327); format: functional;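 note: fluorescence from hydrolysis of an O-methyl fluorescein acyl ester substrate by the enzyme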
Fatty acid synthase [9] = molecular target: T3, Fatty acid synthase; experiment: inhibition of human FAS-TE enzyme activity – biochemical, kinetic fluorescence intensity, dose response (AID 624326); format: functional;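 note: rate of fluorescence rise from hydrolysis of a fluorogenic O-methyl fluorescein ester substrate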
[10] = molecular target: Heat shock protein HSP 90-alpha (Homo sapiens, UniProt P07900); format: functional, organism-based
[11] = molecular target: T4, Heat shock factor protein 1 (Mus musculus, UniProt P38532); experiment: enhancement of HSF1-driven luciferase signal – cell-based, NIH3T3, luminescence, dose retest, confirmation (AID 435004); format: functional;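 note: stress induced by proteasome inhibitor MG132 added 30 min after compound; luciferase reporter driven by HSF1 response element in NIH3T3 cells; actives raise luminescence as potentiators of the MG132 stress response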
T4 sequence (P38532 whole entry): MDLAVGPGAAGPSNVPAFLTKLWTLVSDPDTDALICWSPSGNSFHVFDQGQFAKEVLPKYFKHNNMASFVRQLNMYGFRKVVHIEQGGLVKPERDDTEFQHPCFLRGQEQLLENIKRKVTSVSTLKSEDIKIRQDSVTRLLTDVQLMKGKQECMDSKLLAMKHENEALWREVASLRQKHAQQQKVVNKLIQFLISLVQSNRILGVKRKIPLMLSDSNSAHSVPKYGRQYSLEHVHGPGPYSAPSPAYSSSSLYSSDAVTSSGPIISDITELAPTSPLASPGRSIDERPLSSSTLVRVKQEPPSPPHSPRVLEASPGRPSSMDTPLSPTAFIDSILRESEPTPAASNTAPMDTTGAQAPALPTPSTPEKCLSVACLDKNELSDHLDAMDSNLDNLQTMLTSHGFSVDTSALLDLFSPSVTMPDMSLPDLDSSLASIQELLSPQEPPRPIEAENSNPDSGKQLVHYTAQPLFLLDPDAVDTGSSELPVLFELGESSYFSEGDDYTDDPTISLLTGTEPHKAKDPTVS

[12] = viability loss of HPDE-C7K cells – cell-based, fluorescence, HTS, primary screen (AID 431); format: functional; conditions: Homo sapiens
INS1 = experiment: INS-1E survival protection against cytokine death – cell-based, luminescence, retest, dose response (AID 449756); format: functional; conditions: Rattus norvegicus;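 note: cell death triggered by IL-1 beta plus TNF-alpha plus IFN-gamma mixture; protective hits raise ATP signal compared with cytokine alone wells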
[13] = non-specific 3'UTR reporter inhibition in Clone20-Shn3RL – cell-based, Renilla luciferase, cherry-picked, counter-screen for Shn3 inhibitor project, dose response (AID 624133); format: functional
[14] = HPDE-C7 pancreatic duct cell viability loss – fluorescence, HTS (AID 430); format: functional, cell-based; conditions: Homo sapiens
[15] = loss of viability in HepG2 cells – cell-based, CellTiter-Glo, cherry-picked, cytotoxicity control for Shn3 inhibitor project, dose response (AID 624134); format: functional
[16] = reduction of Shn3 3'UTR-driven luciferase in osteoblasts – cell-based, Clone20 osteoblasts, firefly luciferase, cherry-picked, dose response (AID 624132); format: functional;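 note: firefly luciferase luminescence from reporter carrying the Shn3 3'UTR in osteoblasts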
[17] = molecular target: Induced myeloid leukemia cell differentiation protein Mcl-1 (Homo sapiens, UniProt Q07820); format: functional
Cytochrome P450 3A4 = Cytochrome P450 3A4 (Homo sapiens, UniProt P08684);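 note: CYP3A4 tested as one member of a cytochrome P450 panel screen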
Cytochrome P450 2C19 = Cytochrome P450 2C19 (Homo sapiens, UniProt P33261); experiment: Cytochrome panel assay with activity outcomes. Panel member name: p450-cyp2c19 Compounds with AC50 equal or less than 10 uM are considered active; format: functional; conditions: read-out: AC50
[18] = molecular target: DNA dC->dU-editing enzyme APOBEC-3G (Homo sapiens, UniProt Q9HC16); format: functional;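 note: Dose-response counterscreen measuring inhibition of APOBEC3G DNA deaminase activity, run while confirming APOBEC3A inhibitors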
[19] = molecular target: DNA dC->dU-editing enzyme APOBEC-3A (Homo sapiens, UniProt P31941); experiment: Dose Response confirmation of small molecule APOBEC3A DNA Deaminase Inhibitors via a fluorescence-based single-stranded DNA deaminase assay. [Related pubchem assays (depositor defined):AID493011, AID493024]; format: functional
[20] = molecular target: T5, Ubiquitin-conjugating enzyme E2 N (Homo sapiens, UniProt P61088); format: functional;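 note: Dose-response confirmation in a TR-FRET assay detecting UBC13-driven polyubiquitin chain formation, inhibition measured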
T5 sequence (P61088 whole entry): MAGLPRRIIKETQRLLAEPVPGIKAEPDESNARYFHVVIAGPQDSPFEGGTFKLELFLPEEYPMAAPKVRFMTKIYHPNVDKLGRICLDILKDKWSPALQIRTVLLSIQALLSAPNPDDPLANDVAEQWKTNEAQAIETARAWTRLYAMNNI

Chain of 26S proteasome non-ATPase regulatory subunit 14 (O00487 whole entry): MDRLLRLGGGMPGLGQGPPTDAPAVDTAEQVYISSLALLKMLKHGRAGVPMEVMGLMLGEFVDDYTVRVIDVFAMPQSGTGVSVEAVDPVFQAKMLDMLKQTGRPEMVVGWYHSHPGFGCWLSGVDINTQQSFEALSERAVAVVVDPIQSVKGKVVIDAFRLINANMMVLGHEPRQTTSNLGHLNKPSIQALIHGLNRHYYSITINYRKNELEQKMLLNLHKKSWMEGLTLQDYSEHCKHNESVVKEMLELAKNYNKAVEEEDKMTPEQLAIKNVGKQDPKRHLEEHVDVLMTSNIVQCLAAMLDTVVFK
Chain of Cytochrome P450 2C9 (P11712 whole entry): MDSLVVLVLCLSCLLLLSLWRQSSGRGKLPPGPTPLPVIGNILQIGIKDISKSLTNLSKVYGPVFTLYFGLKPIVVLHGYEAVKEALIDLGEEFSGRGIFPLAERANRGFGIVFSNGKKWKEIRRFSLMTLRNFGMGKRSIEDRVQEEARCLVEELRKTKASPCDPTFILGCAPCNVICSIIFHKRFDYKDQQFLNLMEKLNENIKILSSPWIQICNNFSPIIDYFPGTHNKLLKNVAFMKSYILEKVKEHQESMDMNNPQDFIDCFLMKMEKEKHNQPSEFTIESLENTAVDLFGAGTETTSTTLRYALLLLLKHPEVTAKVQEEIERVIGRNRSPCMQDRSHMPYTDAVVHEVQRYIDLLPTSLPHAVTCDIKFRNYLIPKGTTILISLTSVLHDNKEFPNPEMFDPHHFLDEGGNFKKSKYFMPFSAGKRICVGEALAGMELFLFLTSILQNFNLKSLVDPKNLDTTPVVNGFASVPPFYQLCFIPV
Chain of 72 kDa type IV collagenase (P08253 whole entry): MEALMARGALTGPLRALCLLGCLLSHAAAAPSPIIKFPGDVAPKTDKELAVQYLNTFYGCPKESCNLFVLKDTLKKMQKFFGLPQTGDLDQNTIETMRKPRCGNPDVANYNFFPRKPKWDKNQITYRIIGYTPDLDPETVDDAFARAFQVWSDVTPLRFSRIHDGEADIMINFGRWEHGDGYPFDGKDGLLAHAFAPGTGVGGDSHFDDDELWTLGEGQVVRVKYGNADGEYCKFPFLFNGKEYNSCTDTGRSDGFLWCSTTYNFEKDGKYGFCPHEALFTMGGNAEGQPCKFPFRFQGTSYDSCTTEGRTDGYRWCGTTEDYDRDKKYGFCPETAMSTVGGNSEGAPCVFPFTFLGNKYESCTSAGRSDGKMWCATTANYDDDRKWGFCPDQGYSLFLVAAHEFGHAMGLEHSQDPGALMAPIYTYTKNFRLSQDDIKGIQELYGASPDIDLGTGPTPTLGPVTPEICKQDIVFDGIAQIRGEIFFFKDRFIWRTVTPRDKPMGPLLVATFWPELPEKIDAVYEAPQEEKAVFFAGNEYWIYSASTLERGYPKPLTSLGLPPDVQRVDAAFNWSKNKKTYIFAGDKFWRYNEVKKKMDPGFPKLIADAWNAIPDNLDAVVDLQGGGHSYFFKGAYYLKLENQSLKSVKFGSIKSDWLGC
T3 sequence (P49327 whole entry): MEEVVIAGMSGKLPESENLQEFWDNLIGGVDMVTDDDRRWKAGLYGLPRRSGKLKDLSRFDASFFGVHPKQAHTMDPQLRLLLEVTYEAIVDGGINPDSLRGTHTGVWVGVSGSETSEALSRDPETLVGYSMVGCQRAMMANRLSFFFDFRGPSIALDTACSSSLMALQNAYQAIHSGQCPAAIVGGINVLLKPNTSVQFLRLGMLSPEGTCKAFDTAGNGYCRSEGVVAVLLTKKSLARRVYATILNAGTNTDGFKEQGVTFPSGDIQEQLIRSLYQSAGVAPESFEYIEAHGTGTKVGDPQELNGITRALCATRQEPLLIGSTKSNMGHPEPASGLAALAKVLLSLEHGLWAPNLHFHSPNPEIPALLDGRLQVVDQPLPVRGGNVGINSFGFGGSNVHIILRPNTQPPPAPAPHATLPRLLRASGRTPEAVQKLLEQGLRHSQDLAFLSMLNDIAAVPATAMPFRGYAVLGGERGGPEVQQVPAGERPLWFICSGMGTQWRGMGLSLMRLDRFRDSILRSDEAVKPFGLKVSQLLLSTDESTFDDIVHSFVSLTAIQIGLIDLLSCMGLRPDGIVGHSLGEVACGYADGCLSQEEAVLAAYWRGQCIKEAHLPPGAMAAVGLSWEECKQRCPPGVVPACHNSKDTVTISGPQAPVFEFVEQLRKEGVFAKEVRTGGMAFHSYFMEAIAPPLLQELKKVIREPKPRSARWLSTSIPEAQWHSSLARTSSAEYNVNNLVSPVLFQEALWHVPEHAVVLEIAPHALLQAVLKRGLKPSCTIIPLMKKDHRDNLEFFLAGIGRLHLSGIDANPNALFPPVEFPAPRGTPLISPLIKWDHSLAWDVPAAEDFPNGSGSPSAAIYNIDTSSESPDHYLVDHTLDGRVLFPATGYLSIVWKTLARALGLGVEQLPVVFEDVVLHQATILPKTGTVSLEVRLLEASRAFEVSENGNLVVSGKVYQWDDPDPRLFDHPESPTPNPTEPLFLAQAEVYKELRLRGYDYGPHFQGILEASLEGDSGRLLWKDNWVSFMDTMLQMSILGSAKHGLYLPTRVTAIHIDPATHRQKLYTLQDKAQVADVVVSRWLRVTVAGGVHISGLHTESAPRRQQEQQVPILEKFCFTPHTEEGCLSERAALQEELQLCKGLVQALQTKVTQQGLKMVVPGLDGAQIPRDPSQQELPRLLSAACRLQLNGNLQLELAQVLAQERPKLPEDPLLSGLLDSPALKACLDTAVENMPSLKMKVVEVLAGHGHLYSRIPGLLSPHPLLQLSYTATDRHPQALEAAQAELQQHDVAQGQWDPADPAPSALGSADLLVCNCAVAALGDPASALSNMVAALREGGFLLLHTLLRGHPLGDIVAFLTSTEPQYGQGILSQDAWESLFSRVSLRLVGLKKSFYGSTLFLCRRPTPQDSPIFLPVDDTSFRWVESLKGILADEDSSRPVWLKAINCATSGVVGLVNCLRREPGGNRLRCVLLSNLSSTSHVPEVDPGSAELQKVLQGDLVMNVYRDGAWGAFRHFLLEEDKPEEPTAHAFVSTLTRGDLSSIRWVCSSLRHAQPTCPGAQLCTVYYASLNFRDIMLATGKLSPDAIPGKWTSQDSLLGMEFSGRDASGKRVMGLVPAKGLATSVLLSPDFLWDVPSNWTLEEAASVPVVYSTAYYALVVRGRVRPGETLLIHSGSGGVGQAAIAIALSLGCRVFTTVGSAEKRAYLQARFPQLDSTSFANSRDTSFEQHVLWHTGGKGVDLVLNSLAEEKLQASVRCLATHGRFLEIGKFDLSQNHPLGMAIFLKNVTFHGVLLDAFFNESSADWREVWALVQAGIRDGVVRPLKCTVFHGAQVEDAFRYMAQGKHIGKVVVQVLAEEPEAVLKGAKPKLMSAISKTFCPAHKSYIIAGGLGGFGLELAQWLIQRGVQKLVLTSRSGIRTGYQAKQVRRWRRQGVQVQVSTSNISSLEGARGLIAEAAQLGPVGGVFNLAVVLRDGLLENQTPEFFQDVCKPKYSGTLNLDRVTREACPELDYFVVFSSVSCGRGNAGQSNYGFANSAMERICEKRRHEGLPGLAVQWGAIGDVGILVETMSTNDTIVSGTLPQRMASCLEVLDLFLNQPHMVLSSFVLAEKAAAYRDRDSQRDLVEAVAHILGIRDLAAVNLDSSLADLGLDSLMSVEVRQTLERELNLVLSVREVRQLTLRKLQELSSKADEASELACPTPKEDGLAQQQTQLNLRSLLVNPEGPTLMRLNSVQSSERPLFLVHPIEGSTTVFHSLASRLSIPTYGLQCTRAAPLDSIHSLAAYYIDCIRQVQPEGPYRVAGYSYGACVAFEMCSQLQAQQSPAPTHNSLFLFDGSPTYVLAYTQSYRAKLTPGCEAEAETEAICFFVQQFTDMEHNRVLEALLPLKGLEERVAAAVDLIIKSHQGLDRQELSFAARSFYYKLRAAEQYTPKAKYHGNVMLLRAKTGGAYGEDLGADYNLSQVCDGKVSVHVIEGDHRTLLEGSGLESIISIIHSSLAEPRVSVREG
Chain of Induced myeloid leukemia cell differentiation protein Mcl-1 (Q07820 whole entry): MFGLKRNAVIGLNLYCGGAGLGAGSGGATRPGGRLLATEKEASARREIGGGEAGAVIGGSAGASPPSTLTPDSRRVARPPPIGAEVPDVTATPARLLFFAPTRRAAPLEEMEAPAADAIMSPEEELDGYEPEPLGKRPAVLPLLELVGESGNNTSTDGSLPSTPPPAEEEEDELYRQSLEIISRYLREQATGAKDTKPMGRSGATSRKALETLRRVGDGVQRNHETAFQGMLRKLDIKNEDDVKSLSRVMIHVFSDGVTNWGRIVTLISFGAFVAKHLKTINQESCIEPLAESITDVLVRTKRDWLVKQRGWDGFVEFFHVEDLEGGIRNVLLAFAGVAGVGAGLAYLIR
Chain of Cytochrome P450 2C19 (P33261 whole entry): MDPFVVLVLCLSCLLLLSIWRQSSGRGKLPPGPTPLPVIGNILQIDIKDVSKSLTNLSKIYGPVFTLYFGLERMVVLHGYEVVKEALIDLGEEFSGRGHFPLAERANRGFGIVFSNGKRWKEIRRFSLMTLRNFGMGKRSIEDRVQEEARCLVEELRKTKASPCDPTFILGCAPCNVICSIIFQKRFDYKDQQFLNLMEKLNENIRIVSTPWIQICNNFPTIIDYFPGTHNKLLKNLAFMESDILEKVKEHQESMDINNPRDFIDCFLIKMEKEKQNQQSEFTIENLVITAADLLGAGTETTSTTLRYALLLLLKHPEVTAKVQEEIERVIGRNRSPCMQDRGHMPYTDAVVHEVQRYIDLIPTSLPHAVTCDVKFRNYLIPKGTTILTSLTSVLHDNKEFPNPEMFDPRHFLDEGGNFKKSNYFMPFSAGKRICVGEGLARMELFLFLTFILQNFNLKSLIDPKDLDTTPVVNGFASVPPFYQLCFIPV
Chain of DNA dC->dU-editing enzyme APOBEC-3A (P31941 whole entry): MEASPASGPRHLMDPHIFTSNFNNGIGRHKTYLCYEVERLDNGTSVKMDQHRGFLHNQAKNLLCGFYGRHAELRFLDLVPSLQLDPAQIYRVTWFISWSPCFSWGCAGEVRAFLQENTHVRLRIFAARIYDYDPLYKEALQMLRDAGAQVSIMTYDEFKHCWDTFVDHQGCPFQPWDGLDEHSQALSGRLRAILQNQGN

Structure (SMILES): COc1ccc(C(=O)/N=c2\nc3ccccn3s2)cc1
- EC50 [1]: 5.24 µM (active)
- EC50 [2]: 1.07 µM (active)
- AC50 (HEK293): 0.768 µM (active)

- IC50 [3]: > 100 µM (inactive)
- IC50 [4]: 50.9 µM (active)
- IC50 (Prothrombin): 31.6 µM (active)
Structure (SMILES): O=C(Nc1ccc2c(c1)CCC2)c1cc(S(=O)(=O)N2CCN(c3ccccc3)CC2)ccc1Cl

Structure (SMILES): Cn1nc(C(F)(F)F)c(/C=N/OC(=O)c2ccccc2)c1Cl
- AC50 (Cytochrome P450 2C9): inactive

Structure (SMILES): COc1cc(C2C(C#N)=C(N)Oc3cc4c(cc32)OCO4)cc(OC)c1OC (configuration not stated)
- IC50 [5]: > 80 µM (inactive)
- AC50 [6]: 0.365 µM (active)
- AC50 (Paired box protein Pax-8): 0.553 µM (active)

Structure (SMILES): O=C1C=Cc2cccc3ccc(O)c1c23
- AC50 (HEK293): 18.1 µM (active)

- AC50 (Cytochrome P450 2C9): inconclusive
Structure (SMILES): COc1ccccc1CC(=N)NOC(=O)c1ccc(C)c([N+](=O)[O-])c1

- IC50 [7]: 4.77 µM (active)
Structure (SMILES): Cc1cc(N2CCN(c3nc(-c4ccc([N+](=O)[O-])cc4)cs3)CC2)c2ccccc2n1

- IC50 (Fatty acid synthase [8]): 14.5 µM (active)
- IC50 (Fatty acid synthase [9]): 17.9 µM (active)
Structure (SMILES): C/C(=N\Nc1nc(N2CCOCC2)nc(N2CCOCC2)n1)c1ccc([N+](=O)[O-])cc1

- AC50 [6]: 3.62 µM (active)
- AC50 [10]: 0.75 µM (active)
- EC50 [11]: > 260 µM (inconclusive)
Structure (SMILES): O=C(C#Cc1ccccc1)c1cccc([N+](=O)[O-])c1

- IC50 [7]: 10.4 µM (active)
Structure (SMILES): O=C(N/N=C/C(Br)=C/c1ccccc1)c1ccc([N+](=O)[O-])cc1

- IC50 [7]: 6.64 µM (active)
Structure (SMILES): CCn1cc(C(=O)O)c(=O)c2cc(F)c(N3CCN(C(=S)NC(=O)c4ccccc4F)CC3)cc21

Structure (SMILES): O=C(c1ccccc1)C(CCC(CN1CCOCC1)C(=O)c1ccccc1)CN1CCOCC1 (configuration not stated)
- EC50 [12]: 6.43 µM (active)
- AC50 (INS1): > 120 µM (inactive)
- AC50 (HEK293): 6.35 µM (active)
- AC50 [13]: 11.9 µM (active)
- EC50 [14]: 11.1 µM (active)
- AC50 [15]: 12.6 µM (active)
- AC50 [16]: 12.8 µM (active)

- AC50 (Cytochrome P450 2C9): inconclusive
Structure (SMILES): COc1ccccc1C1=NOC(COC(=O)c2ccc3ccccc3n2)C1 (configuration not stated)

Structure (SMILES): COC(=O)[C@@]1(Cc2ccccc2)[C@H]2C(=O)N(Cc3ccccc3)C(=O)[C@H]2[C@H]2CN=C(SCc3ccc(Cl)cc3)N21
- AC50 (HEK293): 6.5 µM (active)

- AC50 (Cytochrome P450 2C9): inconclusive
Structure (SMILES): CCN(CC)C(=O)C(=O)N/N=C/c1cccc(Br)c1

- IC50 [3]: > 100 µM (inactive)
- IC50 [4]: 48.2 µM (active)
- IC50 (Prothrombin): 21.7 µM (active)
Structure (SMILES): COc1cccc2cc(C(=O)Nc3ccc(F)cc3)/c(=N/c3ccc(C(=O)O)cc3)oc12

- IC50 [3]: > 100 µM (inactive)
- IC50 [4]: 44.7 µM (active)
- IC50 (Prothrombin): 40.4 µM (active)
- IC50 [17]: 4.92 µM (active)
Structure (SMILES): NC1=NC(=O)/C(=C/c2cn(CCC(=O)O)nc2-c2ccc(Cl)cc2)S1

- IC50 (Fatty acid synthase [8]): 5.51 µM (active)
- IC50 (Fatty acid synthase [9]): 4.36 µM (active)
Structure (SMILES): CC(C)(C)c1ccc(C(=O)OCCNC(=O)c2c(Cl)nc3ccccn23)cc1

Structure (SMILES): Cc1nc2c(OCc3ccc(Cl)cc3Cl)cccn2c1N(C)CC1CC1
- IC50 (Fatty acid synthase [8]): 12.7 µM (active)
- IC50 (Fatty acid synthase [9]): 12.9 µM (active)
- AC50 [13]: 19.9 µM (active)
- AC50 [15]: 35.3 µM (active)
- AC50 [16]: 10 µM (active)

- IC50 [3]: 92.4 µM (active)
- IC50 [4]: 27.1 µM (active)
- IC50 (Prothrombin): 22.2 µM (active)
Structure (SMILES): COc1ccc(Cc2c(-c3ccc(C)cc3)nc3ccc(Cl)cn23)c(C)c1

- AC50 (Cytochrome P450 2C9): inconclusive
- AC50 (Cytochrome P450 3A4): 28.2 µM (inconclusive)
- AC50 (Cytochrome P450 2C19): 20 µM (inconclusive)
Structure (SMILES): COc1ccc(C(=O)NCc2cn3ccccc3n2)cc1

- IC50 [7]: 52.9 µM (inactive)
Structure (SMILES): O=C(N/N=C/C(Cl)=C/c1ccccc1)c1ccc2c(c1)OCO2

- IC50 (Fatty acid synthase [8]): 8.63 µM (active)
- IC50 (Fatty acid synthase [9]): 9.1 µM (active)
Structure (SMILES): CC(C)COc1ccc(C(=O)N/C(=C\c2cccc([N+](=O)[O-])c2)C(=O)O)cc1

Structure (SMILES): COC(=O)C1=C(C)N(Cc2ccccc2)C(NCC(C)C)=N[C@H]1c1cccc(C(F)(F)F)c1
- IC50 [18]: 4.22 µM (active)
- AC50 [6]: 15 µM (active)
- IC50 [19]: 2.88 µM (active)
- IC50 [20]: > 20 µM (inactive)
